Columns and labels:
colon cancer cells = conditions: preclinical studies, Kapitza et al. 2005; cited from earlier work
cancer = conditions: cited from earlier work
[1] = tested on: Hep3B liver carcinoma xenograft; assay: Hep3B liver carcinoma xenograft assay, survival; assay type: in vivo, CB17 SCID mice; conditions: SCID mice, test drug 30 mg/kg i.v. day 1 and 8, sorafenib 25 mg/kg p.o. days 1-5 and 8-12, control 33 days
Description: Xenograft Assay: CB17 severe combined immunodeficient (SCID) female mice were used for all in vivo studies. The mice received food and water ad libitum. For tumor application, logarithmically growing Hep3B cells in cell culture were collected by trypsinization and washed once in serum-free culture medium. The cells were then pelleted and resuspended in culture medium to a final cell count of 2×10^7/ml. 50 μl of the cell suspension was injected s.c. in the right flank of each mouse. Treatment started when all animals in the study had established tumors of a size of about 3×3 mm.
Sorafenib (LC Laboratories, Woburn, Mass., USA) was dissolved in DMSO (50 mg/ml), further diluted in Cremophor EL/95% ethanol (50:50; Sigma), which was followed by a 1:4 dilution in water. 100 μl sorafenib was administered p.o. once daily at 5 consecutive days for two weeks at a dose of 25 mg/kg body weight (days 1-5 and days 8-12).
Tumor size was calculated using the equation (l×w^2)/2, where l and w refer to the larger and smaller dimensions, respectively, of the tumor. 4 mice were used in each group for each data point.

| SMILES | inducing apoptosis in colon cancer cells (colon cancer cells) | anti-cancer activities in a phase I clinical trial (cancer) | increase in life span / mean survival vs. control [1] [fold] | mean survival [1] [days] |
| --- | --- | --- | --- | --- |
| [Cl-].[Cl-].[Cl-].[Cl-].[Ru+3].c1ccc2[nH][nH+]cc2c1.c1ccc2[nH]ncc2c1.c1ccc2[nH]ncc2c1 [KP1019, indazolium trans-[tetrachlorobis(1H-indazole)ruthenate (III)]] | effective in inducing apoptosis | some anti-cancer activities |  |  |
| [Cl][Ru-]([Cl])([Cl])[Cl].[Na+].c1ccc2[nH]ncc2c1.c1ccc2[nH]ncc2c1 [Test drug] | effective in inducing apoptosis |  | 2.4 | 80 |
| CNC(=O)c1cc(Oc2ccc(NC(=O)Nc3ccc(Cl)c(C(F)(F)F)c3)cc2)ccn1 [sorafenib, reference compound] |  |  | 1.9 | 60 |
